Laboratory results taken from patent publication US20240335431A1, “1-H-PYRROLO[2,3-c]PYRIDINE COMPOUNDS” (Acerta Pharma B.V., priority 2023, published 2024).

Columns and labels:
MOLM-13 cells [1] = experiment: Proliferation assay, MOLM-13 (CellTiter-Glo, 7 days); assay type: cell-based, human
Procedure, shortened: (§1)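 Cells seeded at 125 (MOLM-13), 300 (MV4;11), 75 (OCI-AML3) or 200 (HEL) per well were exposed to 3.16-fold compound dilutions (0.1% DMSO) for 7 days at 37° C. Viability by CellTiter-Glo luminescence, normalized to DMSO (100%) and day-0 plate (0%); IC50 from one-site dose-response fit.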

MV4;11 cells = experiment: Proliferation assay, MV4;11 (CellTiter-Glo, 7 days); assay type: cell-based, human; conditions: read-out: MV-4-11 IC50
Method: (§2) The anti-proliferative effect of compounds was tested in human leukaemia cell lines. The cell lines […] and MV4; 11 each harbor an MLL translocation expressing the MLL fusion proteins MLL-AF9 and MLL-AF4, respectively. Each also express the wildtype protein from the second allele. OCI-AML3 cells carrying the NPM1c gene mutation were also tested.
(§3) MOLM-13 and HEL cells were cultured in RPMI 1640 (Gibco) supplemented with 10% FBS (Gibco) and 1% Pen/Strep (Gibco). MV4; 11 cells were cultured in IMDM (Gibco) supplemented with 10% FBS (Gibco) and 1% Pen/Strep (Gibco). OCI-AML3 cells were cultured in MEMa (Gibco) supplemented with 20% FBS (Gibco) and 1% Pen/Strep (Gibco).
(§4) To assess proliferative effects, 125 MOLM-13 cells, 300 MV4; 11 cells, 75 OCI-AML3 cells, and 200 HEL cells were seeded in 40 μL media per well in 384-well ViewPlates (Perkin Elmer, 6007480). Cell seeding numbers were chosen based on growth curves to ensure linear growth throughout the experiments. Test compounds were added at 3.16-fold serial dilutions in DMSO from […] and DMSO content was normalized to 0.1%. Cells were incubated for 7 days at 37° C. and 5% CO2. A day 0 plate was seeded for each cell line and used as a standard control.
(§5) To measure cell viability, CellTiter-Glo 2.0 (Promega, G9242) luminescent growth indicator was used. 10 μL CellTiter-Glo reagent was added per well. Plates were placed on a plate shaker for 2 minutes in the dark and left to incubate off the shaker for another 8 minutes in the dark, for a total of 10 minutes. Plates were read using an EnVision plate reader (Perkin Elmer) using the Luminescence aperture and a measurement time of 0.1 second.
(§6) Data were analyzed in Genedata Screener®. IC50 values were determined by plotting % inhibition versus log compound concentration and using a one site dose response model. Raw data signals were normalized using 0.1% DMSO media only as background control, 0.1% DMSO with cells no compound as 100% viability (maximum signal), and day 0 0.1% DM with cells no compound as 0% viability (minimum signal).

HEL cells = experiment: Proliferation assay, HEL control cell line (CellTiter-Glo, 7 days); assay type: cell-based, human
Procedure, shortened: as §1

Menin protein = Menin protein (Homo sapiens, UniProt O00255, DEL460-519); experiment: Menin/MLL fluorescence polarization (FP) assay; assay type: binding; conditions: Menin 2 nM, cRho110-Ahx-MBM1/MBM2 peptide 1 nM
Chain of Menin protein (O00255 with tags, fused parts or gaps DEL460-519): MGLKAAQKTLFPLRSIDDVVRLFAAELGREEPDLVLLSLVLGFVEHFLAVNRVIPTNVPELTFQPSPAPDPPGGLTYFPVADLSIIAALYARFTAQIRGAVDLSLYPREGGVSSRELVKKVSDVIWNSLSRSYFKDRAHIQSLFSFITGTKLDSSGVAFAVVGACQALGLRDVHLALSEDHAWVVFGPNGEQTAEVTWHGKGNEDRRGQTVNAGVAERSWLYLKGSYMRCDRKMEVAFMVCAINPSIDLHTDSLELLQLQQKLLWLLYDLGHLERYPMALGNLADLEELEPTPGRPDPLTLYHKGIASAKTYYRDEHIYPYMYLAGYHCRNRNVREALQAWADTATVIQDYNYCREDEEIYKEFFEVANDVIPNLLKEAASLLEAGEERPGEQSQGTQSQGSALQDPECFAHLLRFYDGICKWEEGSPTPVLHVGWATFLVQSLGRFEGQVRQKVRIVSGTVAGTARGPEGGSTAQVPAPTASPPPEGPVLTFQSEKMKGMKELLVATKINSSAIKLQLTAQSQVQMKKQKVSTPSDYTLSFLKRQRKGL
Method: Compounds were tested in a biochemical binding assay using Menin protein at 2 nM (N6his-tev-Menin_4i80, PB-20-1459) and the substrate cRho110-Ahx-MBM1/MBM2 peptide (UbiQ, UbiQ-Q20201030; cRh110-Ahx-[…]-QRVPALLLPPG-NH2) at 1 nM.
384 Low volume black plates (Corning #4514) were used. 5 μL/well compound or 3% DMSO was added at 10-fold serial dilutions in DMSO from 10 μM. 5 μL/well cRho110-Ahx-MBM1/MBM2 peptide or binding buffer (50 mM Tris pH 7.5, 50 mM NaCl, 1 mM TCEP, 0.01% BGG, 0.01% Brij-35) was added to all wells. 5 μL/well Menin protein or binding buffer (50 mM Tris pH 7.5, 50 mM NaCl, 1 mM TCEP, 0.01% BGG, 0.01% Brij-35) was added to all wells. Plates were read on an EnVision plate reader (Perkin Elmer) with excitation at 480 nm and emission at 535 nm P+S, and measured every 5 minutes for 180 minutes.
Data were analyzed in Genedata Screener®. IC50 values were determined by plotting % inhibition versus log compound concentration and using a one site dose response model. Raw data signals were normalized using 1% DMSO no Menin as 100% inhibitor control and 1% DMSO with Menin and no inhibitor as 0% inhibitor control.

OCI-AML3 cells = experiment: Proliferation assay, OCI-AML3 (CellTiter-Glo, 7 days); assay type: cell-based, human
Method: as §2, §3, §4, §5, §6

[2] = Human liver microsomes (HLMs) intrinsic clearance assay; assay type: in vitro ADME; conditions: human, microsomes, 1 µM, pH 7.4
MOLM-13 cells [3] = experiment: Cell death in MOLM-13 cell line, Compound 56-2 with BCL2 inhibitor venetoclax (CellTiter-Glo, 4 days); assay type: cell-based, human
Method: Test compound was dispensed using a Tecan compound dispenser into 384-well plates (Microplate 384-well, polypropylene, F-bottom; Greiner Bio-One, #781201) in a ten-by-ten response matrix to assess the combination effects of Menin inhibition (Compound 56-2) together with BCL-2 inhibition (venetoclax) at the following concentrations after subsequent cell seeding in 40 μL of growth media: 10 μM, 3.16 μM, 1 μM, 0.316 μM, 0.1 μM, 0.0316 μM, 0.01 μM, 0.00316 μM, […], and vehicle (DMSO; Sigma-Aldrich, D2650). Cells were seeded at 1000 cells per well and incubated at 37° C. and 5% CO2. MOLM-13 cells were grown in RPM1 1640 (Gibco, #21875091) supplemented with 10% FBS (Gibco; #10091-148) and 1% Pen/Strep (Gibco; #15140-122). After 4 days of compound treatment, plates were placed at room temperature for 15 minutes. 10 μL CellTiter-Glo reagent (Promega, #G9242) was added to the cells and incubated for 10 minutes in the dark on a plate shaker at room temperature. A backseal (Perkin Elmer; #6005199) was added to the plates and luminescence was measured at 0.1 sec/well in an Envision (Perkin Elmer). Data were normalized for each plate so that the average of control wells (DMSO) was set to 0%, and the maximum observed value across the plate was set as 100%. Data fitting was performed using Graphpad Prism and combination effect was assessed using SynergyFinder.

Row | IC50 (MOLM-13 cells [1]) [nM] | IC50 (MV4;11 cells) [nM] | IC50 (Menin protein) [nM] | IC50 (OCI-AML3 cells) [nM] | HLM CLint [2] [µL/min/mg] | SMILES | IC50 (HEL cells) [µM] | cell viability as monotherapy (in words) (MOLM-13 cells [3])
1 | 71 | 53 | 48 | 118 | 89 | Cc1c(C(=O)[C@@H]2CCN(C(=O)[C@H]3NC[C@@H]4C[C@@H]43)[C@@H](C)C2)c2ccncc2n1-c1ccc(F)cc1C(=O)N(CC(F)(F)F)C(C)C (single isomer, unassigned) [Example 53-4, 2-(3-((2R*,4S*)-1-((1S,2S,5R)-3-Azabicyclo[3.1.0]hexane-2-carbonyl)-2-methylpiperidine-4-carbonyl)-2-methyl-1H-pyrrolo[2,3-c]pyridin-1-yl)-5-fluoro-N-isopropyl-N-(2,2,2-trifluoroethyl)benzamide] | > 10 | –
2 | – | – | – | – | – | CC1(C)CCC(CN2CCN(c3ccc(C(=O)NS(=O)(=O)c4ccc(NCC5CCOCC5)c([N+](=O)[O-])c4)c(Oc4cnc5[nH]ccc5c4)c3)CC2)=C(c2ccc(Cl)cc2)C1 [venetoclax, reference compound] | – | cell viability loss was induced
